Data reported in publication PMC9925730, “Controlled sequential in situ self-assembly and disassembly of a fluorogenic cisplatin prodrug for cancer theranostics” (Nature Communications, 2023).
Where “and” joins values, the source holds several entries; their conditions need not be identical. Equal entries are not always repeated.

Test: Urine and faeces analysis by HPLC (mCy-containing compounds)
Format: in vivo, mice
[1] = Time period 0-2 h, individual mice, matrix and injected agent not given
[2] = Time period 0-2 h, mean of 3 mice, matrix and injected agent not given
[3] = Time period 2-4 h, individual mice
[4] = Time period 2-4 h, mean of 3 mice
[5] = Time period 4-8 h, individual mice
[6] = Time period 4-8 h, mean of 3 mice
[7] = Time period 8-12 h, mean of 3 mice
[8] = after i.v. preformed PtIVNPs, 2-4 h
[9] = after i.v. preformed PtIVNPs, 4-8 h
[10] = after i.v. preformed PtIVNPs, 8-12 h

## CC1(C)C(/C=C/C2=C3Oc4cc(O)c(Cl)cc4C=C3CCC2)=[N+](CCCNC(=O)[C@@H](Cc2ccccc2)NC(=O)[C@@H](Cc2ccccc2)NC(=O)CCC(=O)[O][Pt]([NH2])([NH2])([OH])([Cl])[Cl])c2ccccc21 [CyPt]
[1]
  Compound found in excreta (%), Supplementary Table S5: 1.0169% and 1.15% and 0.9269%
  Compound found in excreta (%), Supplementary Table S6: 0.0316% and 0.04969% and 0.02632%
  Compound found in excreta (%), Supplementary Table S7: 0%
  Compound found in excreta (%), Supplementary Table S8: 0.5086% and 0.616% and 0.02021%
[2]
  Compound found in excreta (%), Supplementary Table S5: 1.03%
  Compound found in excreta (%), Supplementary Table S6: 0.0359%
  Compound found in excreta (%), Supplementary Table S7: 0.00%
  Compound found in excreta (%), Supplementary Table S8: 0.38%
[3]
  Compound found in excreta (%), Supplementary Table S5: 0.5615% and 0.6076% and 0.4976%
  Compound found in excreta (%), Supplementary Table S6: 0.965% and 1.15% and 0.7153%
  Compound found in excreta (%), Supplementary Table S7: 2.308% and 2.538% and 1.332%
  Compound found in excreta (%), Supplementary Table S8: 12.9072% and 11.8054% and 9.624%
[4]
  Compound found in excreta (%), Supplementary Table S5: 0.56%
  Compound found in excreta (%), Supplementary Table S6: 0.94%
  Compound found in excreta (%), Supplementary Table S7: 2.06%
  Compound found in excreta (%), Supplementary Table S8: 11.45%
[5]
  Compound found in excreta (%), Supplementary Table S5: 0.2738% and 0.2968% and 0.2509%
  Compound found in excreta (%), Supplementary Table S6: 10.4273% and 10.6083% and 7.985%
  Compound found in excreta (%), Supplementary Table S7: 3.373% and 3.391% and 1.995%
  Compound found in excreta (%), Supplementary Table S8: 11.1798% and 12.4002% and 9.36%
[6]
  Compound found in excreta (%), Supplementary Table S5: 0.27%
  Compound found in excreta (%), Supplementary Table S6: 9.67%
  Compound found in excreta (%), Supplementary Table S7: 2.92%
  Compound found in excreta (%), Supplementary Table S8: 10.98%
Time period 8-12 h, individual mice
  Compound found in excreta (%), Supplementary Table S8: 1.288% and 2.706% and 1.988%
[7]
  Compound found in excreta (%), Supplementary Table S5: 0.00%
  Compound found in excreta (%), Supplementary Table S6: 0.76%
  Compound found in excreta (%), Supplementary Table S7: 1.17%
  Compound found in excreta (%), Supplementary Table S8: 1.99%
After i.v. P-CyPt, 2-4 h
  percentage excreted to the faeces (HPLC): 0.94 ± 0.22%
  percentage excreted to the urine (HPLC): 0.56 ± 0.055%
After i.v. P-CyPt, 4-8 h
  percentage excreted to the faeces (HPLC): 9.67 ± 1.46% and ~ 9.7%
  percentage excreted to the urine (HPLC): 0.27 ± 0.23%
After i.v. P-CyPt, 8-12 h
  percentage excreted to the faeces (HPLC): 0.76 ± 0.14%
  percentage excreted to the urine (HPLC): 0%
[8]
  percentage excreted to the faeces (HPLC): 11.44 ± 1.67%
  percentage excreted to the urine (HPLC): 2.06 ± 0.64%
[9]
  percentage excreted to the faeces (HPLC): 10.98 ± 1.53%
  percentage excreted to the urine (HPLC): 2.92 ± 0.80%
[10]
  percentage excreted to the faeces (HPLC): 1.99 ± 0.71%
  percentage excreted to the urine (HPLC): 1.16 ± 0.43%
